Patent EP0687253B1, “4-AMINOPYRIDINES, PROCESS FOR PREPARING THE SAME AND MEDICAMENTS CONTAINING THE SAME” (BOEHRINGER MANNHEIM GMBH, priority 1993, dated 1994)

Key:
humanem α-Thrombin = molecular target: T1, humanem α-Thrombin (Homo sapiens, UniProt P00734); assay: Thrombin inhibition, kinetic measurement with chromogenic substrate S-2238; type: biochemical; settings: 0,1 M phosphate buffer, pH = 7.5, 25 °C, substrate H-(D)-Phe-Pro-Arg-pNA (S-2238)
T1 construct: humanem α-Thrombin (Sigma, spezifische Aktivität = 2150 NIH-units/mg); purchased Sigma
Method: Die kinetischen Messungen wurden in 0,1 M Phosphatpuffer, der 0.2 M Kochsalz und 0.5 % Polyethylenglycol 6000 enthielt. bei einem pH = 7.5 und 25 °C mit dem Substrat H-(D)-Phe-Pro-Arg-pNA (S-2238 Kabi) und humanem α-Thrombin (Sigma, spezifische Aktivität = 2150 NIH-units/mg) in Polystyrol-Halbmikroküvetten in einem Gesamtvolumen von 1 ml durchgeführt.
In einem Vorversuch wurde mit jeder Wirksubstanz bestimmt, ob sie Thrombin schnell oder langsam inhibiert. Dazu wurde die Reaktion einmal durch Zugabe von 0.03 NIH-units Thrombin zu einer 100 µM-Lösung des Substrats und des Wirkstoffs gestartet. In einem zweiten Versuch wurde Substrat zu einer 5 Min. inkubierten Lösung des Thrombins und des Wirkstoffs gegeben. Die Zunahme der Konzentration von p-Nitroanilin mit der Zeit wurde spektroskopisch (UV-VIS-Spektrophotometer Lambda-2 der Firma Perkin-Elmer) bei 405 nm 12 Min. verfolgt. Da die bei beiden Versuchen erhaltenen Messkurven linear und parallel waren, handelt es sich bei den Wirkstoffen der folgenden Tabelle um schnelle Thrombin-Inhibitoren. Die Inhibitionskonstanten Ki wurden dann wie folgt bestimmt. Das Substrat wurde in den Konzentrationen 100 µM, 50 µM. 30 µM, 20 µM eingesetzt und bei jeder Substratkonzentration eine Messung ohne Inhibitor und drei Messungen in Gegenwart unterschiedlicher Konzentrationen der in der folgenden Tabelle aufgeführten Inhibitoren durchgeführt. Die Reaktionen wurden durch Zugabe von Thrombin gestartet. Die Zunahme der Extinktion bei 405 nm durch das entstehende p-Nitroanilin über einen Zeitraum von 12 Min. verfolgt. Im Abstand von 20 Sek. wurden Meßpunkte (Zeit vs. Extinktion) auf einen PC übertragen. Aus den Daten wurden die Geschwindigkeiten Vo (Extinktionsänderung pro Sek.: Messungen ohne Inhibitor) und Vi (Messungen mit Inhibitor) durch lineare Regression bestimmt. Benutzt wurde nur der Teil jeder Messung. bei dem sich die Substratkonzentration um weniger als 15 % vermindert hatte. Aus einer Meßreihe (konstante Inhibitorkonzentration, variable Substratkonzentrationen) bestimmte man Km' und Vmax durch nichtlinearen Fit auf die Gleichung V =(Vmax ∗ [S])/([S] + Km ') [formula]
Aus den gesamten Meßreihen berechnete man schließlich Ki durch nichtlinearen Fit auf die Gleichung V =(Vmax ∗ [S])/(Km ∗ (1 + […] ) + [S]) [formula] Die Michaeliskonstante Km betrug in allen Messungen 3.8 ± 2 µM. Die Inhibitionskonstanten Ki der Wirksubstanzen sind in der folgenden Tabelle in der Einheit µM angegeben.

Pferdethrombin = assay: Thrombin time (clotting of human citrate plasma with thrombin reagent, ball coagulometer); type: biochemical, Pferd; settings: thrombin time as difference to control (control ca. 24 Sek.), test stopped at 5 Min.; for TT2.5: 2.5 µM in final volume; for TT25: 25 µM in final volume; for TT250: 250 µM in final volume
Method: Ein in der klinischen Gerinnungsdiagnostik gebräuchlicher Test ist die Thrombinzeit. Dieser Parameter erfaßt die Thrombinwirkung auf Fibrinogen und die Gerinnselbildung. Inhibitoren von Thrombin bewirken eine Verlängerung der Thrombinzeit.
Zur Plasmagewinnung wurden 9 Teile frisches Blut gesunder Spender mit einem Teil Natriumcitratlösung (0.11 Mol/l) gemischt und bei ca. 3000 U/min 10 Min. bei Raumtemperatur zentrifugiert. Das Plasma wurde abpipettiert und kann bei Raumtemperatur ca. 8 h aufbewahrt werden.
200 µl Citratplasma wurden in einem Kugelkoagulometer (KC 10 der Firma Amelung) 2 Min. bei 37 °C inkubiert, Zu 190 µl vortemperiertem Thrombin-Reagenz (Boehringer Mannheim GmbH; enthält ca. 3 U/ml Pferdethrombin und 0.0125 M Ca^++) gab man 10 µl Dimethylsulfoxid (DMSO) oder eine Lösung der Wirksubstanz in DMSO. Mit Zugabe dieser 200 µl Lösung zum Plasma wurde eine Stoppuhr gestartet und der Zeitpunkt bis zum Eintritt der Gerinnung bestimmt. Die Thrombinzeit betrug bei den Kontrollmessungen ca. 24 Sek. und wurde durch die Wirksubstanzen deutlich verlängert. War die Thrombinzeit in Gegenwart einer Beispielverbindung länger als 5 Min.. wurde der Versuch abgebrochen.
In der folgenden Tabelle sind die gemessenen Thrombinzeiten in Sekunden als Differenz zur Kontrolle angegeben. Die Konzentrationen der Wirksubstanzen betrugen im Endvolumen 250 µM (TT250), 25 µM (TT25) und 2.5 µM (TT2.5).

Compound | Ki (humanem α-Thrombin) [nM] | TT2.5 (Pferdethrombin) [Sekunden] | TT25 (Pferdethrombin) [Sekunden] | TT250 (Pferdethrombin) [Sekunden]
O=S(=O)(Nc1cccc(OCCNc2ccncc2)c1)c1cccc2ccccc12 [Beispiel 2, N-{3-[2-(Pyridin-4-ylamino)-ethoxy]-phenyl}-1-naphthalin-sulfonamid] | 300 | 6 | 40 | 150
O=S(=O)(Nc1cccc(OCCNc2ccncc2)c1)C1CCCCC1 [Beispiel 8, N-{3-[2-(Pyridin-4-ylamino)-ethoxy]-phenyl}-cyclohexan-sulfonamid] | 1000 | 13 | 58 | 288
CC(CNc1ccncc1)Oc1cccc(NS(=O)(=O)c2ccccc2)c1 (centres unmarked) [Beispiel 10, N-{3-[1-Methyl-2-(pyridin-4-ylamino)-ethoxy]-phenyl}-benzolsulfonamid] | 3000 | 7 | 43 | 157
O=S(=O)(c1ccccc1)N(Cc1ccccc1)c1cccc(OCCNc2ccncc2)c1 [Beispiel 15, N-Benzyl-N-{3-[2-(pyridin-4-ylamino)-ethoxy]-phenyl}-benzolsulfonamid] | 130 | 15 | 144 | 270
COc1ccc(OCCNc2ccncc2)cc1NS(=O)(=O)c1ccccc1 [Beispiel 59, N-{2-Methoxy-5-[2-(pyridin-4-ylamino)-ethoxy]-phenyl}-benzolsulfonamid] | 6000 | 0 | 8 | 53
Cc1ccc(OCCNc2ccncc2)cc1NS(=O)(=O)c1ccccc1 [Beispiel 60, N-{2-Methyl-5-[2-(pyridin-4-ylamino)-ethoxy]-phenyl}-benzolsulfonamid] | 600 | 13 | 62 | 137
Cc1cc(OCCN(C)c2ccncc2)cc(OS(=O)(=O)c2ccccc2Cl)c1 [Beispiel 72, 2-Chlorbenzolsulfonsäure-5-methyl-3-[2-(N-methyl-pyridin-4-ylamino)-ethoxy]-phenylester] | 24 | 159 | 300 | 300
O=S(=O)(Nc1cc(NCCNc2ccncc2)cc(C(F)(F)F)c1)c1ccccc1 [Beispiel 79, N-{3-[2-(Pyridin-4-ylamino)-ethylamino]-5-trifluormethyl-phenyl}-benzolsulfonamid] | 5000 | 0 | 8 | 30
COc1cc(OCCNc2ccncc2)cc(S(=O)(=O)N(C)c2ccccc2)c1 [Beispiel 80, 3-Methoxy-N-methyl-N-phenyl-5-[2-(pyridin-4-ylamino)-ethoxy]-benzolsulfonamid] | 150 | 44 | 213 | 300
COc1cc(OCCNc2ccncc2)cc(N(C)S(=O)(=O)c2ccccc2)c1 [Beispiel 83, N-Methyl-N-{3-[2-(pyridin-4-ylamino)-ethoxy]-5-methoxy-phenyl}-benzolsulfonamid] | 100 | 48 | 192 | 300
O=S(=O)(c1cc(Cl)cc(NCCNc2ccncc2)c1)N(Cc1ccccc1)c1ccccc1 [Beispiel 86, 3-Chlor-N-benzyl-N-phenyl-5-[2-(pyridin-4-ylamino)-ethylamino]-benzolsulfonamid] | 40 | 11 | 167 | 300
O=S(=O)(Nc1cc(Br)cc(NCCNc2ccncc2)c1)c1ccccc1 [Beispiel 89, N-{3-[2-(Pyridin-4-ylamino)-ethylamino]-5-brom-phenyl}-benzolsulfonamid] | 1000 | 6 | 38 | 132
CCc1cc(OCCNc2ccncc2)cc(OS(=O)(=O)c2ccccc2)c1 [Beispiel 90, Benzolsulfonsäure-3-ethyl-5-[2-(pyridin-4-ylamino)-ethoxy]-phenyl-ester] | 24 | 125 | 300 | 300
Cc1cc(OCCNc2ccncc2)cc(N(CCN)S(=O)(=O)c2ccccc2)c1 [Beispiel 100, N-(2-Aminoethyl)-N-{3-[2-(pyridin-4-ylamino)-ethoxy]-5-methyl-phenyl}-benzolsulfonamid] | 83 | 186 | 300 | 300
Cc1cc(OCCNc2ccncc2)cc(N(CCCCCC(=O)O)S(=O)(=O)c2ccccc2)c1 [Beispiel 108, 6-(Benzolsulfonyl-{3-methyl-5-[2-(pyridin-4-yl-amino)-ethoxy]-phenyl}-amino)-hexansäure] | 55 | 62 | 300 | 300
Cc1cc(OCCNc2ccncc2)cc(N(C)S(=O)(=O)c2ccccc2OCC(=O)O)c1 [Beispiel 124] | 250 | 104 | 300 | 300
CCOC(=O)N(c1cc(C)cc(OCCNc2ccncc2)c1)S(=O)(=O)c1ccccc1OC [Beispiel 125, N-Ethoxycarbonyl-N-{3-methyl-5-[2-(pyridin-4-ylamino)-ethoxy]-phenyl}-2-methoxybenzolsulfonamid] | 150 | 73 | 273 | 300
